Results from patent US10253006B2, “Assay for the detection of the phenylpiperazine family” (RANDOX LABORATORIES LIMITED, priority 2012, dated 2019).
Like-named read-outs stand apart in the source and are kept apart here.

How the values were obtained:
Assay type in all cases: binding, sheep
[1] = test system: antibody 1 raised against Immunogen IV; assay: Biochip competitive immunoassay, antibody 1
Protocol: (§1) A semi-automated Evidence Investigator analyser (Randox Laboratories Ltd., Crumlin, UK) was used as the platform for a biochip assay for the detection of phenylpiperazines.
(§2) Immunogens were administered to 16-month old Suffolk sheep on a monthly basis to provide target specific polyclonal antisera. The immunisation mixture was prepared by adding 2 mg of immunogen prepared in PBS at a ratio of 50% Immunogen/PBS with 50% Freund's Complete adjuvant (Sigma, Product Number—F5881) and emulsifying the mixture to prepare the final product for immunisation. On day 0, 1 ml of the mixture described above was administered intramuscularly to adult sheep. Subsequent boosts (a total of 20 boosts) were administered intramuscularly to each sheep every 30 days. Freund's complete adjuvant (Sigma, Product Number—F5881) was used for primary immunizations and Freund's incomplete adjuvant (Sigma product Number—F5506) was used for all subsequent injections. Routine bleeds were taken between boosts to monitor the antibody titre and sensitivity, using hapten B conjugated to Horseradish peroxidase in a competitive ELISA, testing cross reactivity to 1-(3-Chlorophenyl)piperazine. In the case of the combination immunoassay, immunogens II and IV were administered to separate sheep and the resulting antisera were combined in a 1:1 ratio to form the antibody blend (1 ml of antisera from the sheep administered with Immunogen II was combined with 1 ml of antisera from the sheep administered with Immunogen IV). IgG was extracted from antisera and purified as described above, and the purified antibodies were immobilised on a biochip (9 mm×9 mm) (Randox Laboratories Ltd). The assay was based on competition for binding sites of a polyclonal antibody between Hapten B-HRP conjugate (Example 9) and phenylpiperazines and potential cross-reactants. The antibodies were immobilised and stabilised onto the biochip surface as previously described (Fitzgerald et al., 2005). Assay dilutent (155 μL), calibrator/phenylpiperazine or potential cross-reactant (25 μL) followed by Hapten-B conjugate (120 μL) were added to the appropriate biochip. The biochips were then incubated for 30 minutes at 30° C. on a thermoshaker set at 370 rpm. The biochips were then subjected to 2 quick wash cycles using the wash buffer provided, followed by 4×2 minute wash cycles. 250 μL of signal (1:1 luminol+peroxide, v/v) was then added to each biochip, and after 2 minutes the biochip carrier was imaged in the Evidence Investigator analyser.
(§3) Calibration curves were generated using the Biochip-based immunoassay. IC50 values were calculated from the graphs by taking 50% of the signal from the zero calibrator and reading the corresponding value on the x-axis, equivalent to the concentration of unlabelled ligand which reduces specific binding of labelled ligand by 50%. Specificity (measured as percentage cross-reactivity−[IC50 (analyte)/IC50 (cross-reactant)]×100) was also tested against a range of piperazine derivatives and other compounds sharing structural features (see table 1).

[2] = test system: Combination of antibodies 1 & 2 (antisera combined in a 1:1 ratio)
Protocol: as §1, §2, §3

[3] = test system: antibody 2 raised against Immunogen II
Protocol: as §1, §2, §3

[4] = Antibody 1, Hapten B-HRP conjugate
[5] = Antibody 1, standardized to 1-(3-chlorophenyl)piperazine monohydrochloride, Hapten B-HRP conjugate
[6] = Combination of antibodies 1 & 2, Hapten B-HRP conjugate
[7] = Combination of antibodies 1 & 2, standardized to 1-(3-chlorophenyl)piperazine monohydrochloride, Hapten B-HRP conjugate
[8] = Antibody 2, Hapten B-HRP conjugate
[9] = Antibody 2, standardized to 1-(3-chlorophenyl)piperazine monohydrochloride, Hapten B-HRP conjugate

Molecule	IC50 [1, 4]	Cross-reactivity (%) [1, 5]	IC50 [2, 6]	Cross-reactivity (%) [2, 7]	IC50 [3, 8]	Cross-reactivity (%) [3, 9]	Cross-reactivity (%) [1]	IC50 [1]	Cross-reactivity (%) [2]	IC50 [2]	Cross-reactivity (%) [3]	IC50 [3]
COc1ccccc1N1CCNCC1 [1-(2-Methoxyphenyl)piperazine]	335.160 ng/mL	<1%	15.553 ng/mL	17%	8.770 ng/mL	34%	–	–	–	–	–	–
Clc1cccc(N2CCNCC2)c1 [1-(3-Chlorophenyl)piperazine (mCPP), 1-(3-chlorophenyl)piperazine]	0.907 ng/mL	100%	2.075 ng/mL	100%	2.554 ng/mL	100%	–	–	–	–	–	–
Cc1cccc(N2CCNCC2)c1 [1-(3-Methylphenyl)piperazine (mMPP), 1-(3-Methylphenyl)piperazine]	0.840 ng/mL	129%	1.418 ng/mL	191%	1.697 ng/mL	230%	–	–	–	–	–	–
FC(F)(F)c1cccc(N2CCNCC2)c1 [1-(3-Trifluoromethylphenyl)piperazine]	7.620 ng/mL	13%	5.958 ng/mL	44%	4.831 ng/mL	61%	–	–	–	–	–	–
Oc1cccc(N2CCNCC2)c1 [1-(3-hydroxyphenyl)piperazine]	–	–	–	–	–	–	31%	3.469 ng/mL	95%	2.848 ng/mL	156%	2.504 ng/mL
Fc1ccc(N2CCNCC2)cc1 [1-(4-Fluorophenyl)piperazine]	1.085 ng/mL	54%	5.113 ng/mL	51%	7.646 ng/mL	38%	–	–	–	–	–	–
COc1ccc(N2CCNCC2)cc1 [1-(4-Methoxyphenyl)piperazine (pMeOPP), 1-(4-methoxyphenyl)piperazine]	0.868 ng/mL	68%	10.226 ng/mL	26%	19.771 ng/mL	20%	–	–	–	–	–	–
Oc1ccc(N2CCNCC2)cc1 [1-(4-hydroxyphenyl)piperazine]	1.029 ng/mL	57%	15.032 ng/mL	18%	28.195 ng/mL	10%	–	–	–	–	–	–
CN1CCNC(c2ccccc2)C1 (centres unmarked) [1-Methyl-3-phenylpiperazine]	–	<1%	–	<1%	–	<1%	–	–	–	–	–	–
c1ccc(CN2CCNCC2)cc1 [1-benzylpiperazine (BZP), 1-benzylpiperazine]	232.706 ng/mL	<1%	–	<1%	–	<1%	–	–	–	–	–	–
c1ccc(N2CCNCC2)cc1 [1-phenylpiperazine]	1.017 ng/mL	106%	2.163 ng/mL	125%	2.795 ng/mL	140%	–	–	–	–	–	–
Nc1cccc(C(F)(F)F)c1O [3-Amino-2-hydroxybenzotrifluoride]	–	<1%	–	<1%	–	<1%	–	–	–	–	–	–
OC1(c2ccc(Cl)cc2)CCNCC1 [4-(4-Chlorophenyl)-4-Hydroxypiperidine]	218.980 ng/mL	<1%	–	<1%	–	<1%	–	–	–	–	–	–
CCCCCn1cc(C(=O)c2cccc3ccccc23)c2ccccc21 [JWH-018]	–	<1%	–	<1%	–	<1%	–	–	–	–	–	–
CCCCCn1cc(C(=O)Cc2ccccc2OC)c2ccccc21 [JWH-250]	–	<1%	–	<1%	–	<1%	–	–	–	–	–	–
CCC(C(=O)c1ccc2c(c1)OCO2)N1CCCC1 (centres unmarked) [MDPBP]	–	<1%	–	<1%	–	<1%	–	–	–	–	–	–
CNC(C)C(=O)c1ccc(C)cc1 (centres unmarked) [Mephedrone]	–	<1%	–	<1%	–	<1%	–	–	–	–	–	–
COc1cc(CCN)cc(OC)c1OC [Mescaline]	–	<1%	–	<1%	–	<1%	–	–	–	–	–	–
C1CNCCN1 [Piperazine]	–	–	–	–	–	–	<1%	–	<1%	–	<1%	–
COC(=O)[C@@H]1C[C@H](OC(C)=O)C(=O)[C@H]2[C@@]1(C)CC[C@H]1C(=O)O[C@H](c3ccoc3)C[C@]21C [Salvinorin A]	–	<1%	–	<1%	–	<1%	–	–	–	–	–	–
O=c1n(CCCN2CCN(c3cccc(Cl)c3)CC2)nc2ccccn12 [Trazadone]	–	<1%	–	–	–	<1%	–	–	<1%	–	–	–
(+)-Pseudoephedrine	–	<1%	–	<1%	–	<1%	–	–	–	–	–	–
